According to the supplement of paper PMC6045584:
± gives the standard deviation of the averaged measurements.

Experiments:
CANERTINIB [1] = compound: T1, C=CC(=O)Nc1cc2c(Nc3ccc(F)c(Cl)c3)ncnc2cc1OCCCN1CCOCC1 [CANERTINIB]; assay: area under dose-response curve of surviving fraction (unscaled, Aref=0) (surviving fraction x log10(nM)); higher = more resistant; conditions: exposure time: 5 days; dose range 0.5-1000 nM
Summary of the method: (§1)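 Each tumour cell line was screened three times in 384-well plates, receiving eight inhibitor concentrations from 0.5 to 1000 nM for five days. CellTiter-Glo luminescence gave viability, normalised to DMSO-only wells. Using the drc R package, surviving fractions were fitted with 3-parameter logistic dose-response curves, and the unscaled activity area over log10 dose (Aref = 0) was taken as the area under the curve.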

SNX-5422 [2] = compound: T2, CC1(C)CC(=O)c2c(C(F)(F)F)nn(-c3ccc(C(N)=O)c(N[C@H]4CC[C@H](OC(=O)CN)CC4)c3)c2C1 [SNX-5422]; assay: as above; conditions: exposure time: 5 days; dose range 0.5-1000 nM
Summary of the method: as §1

SAPACITABINE [3] = compound: T3, CCCCCCCCCCCCCCCC(=O)Nc1ccn([C@@H]2O[C@H](CO)[C@@H](O)[C@@H]2C#N)c(=O)n1 [SAPACITABINE]; assay: as above; conditions: exposure time: 5 days; dose range 0.5-1000 nM
Summary of the method: as §1

BI-2536 [4] = compound: T4, CC[C@@H]1C(=O)N(C)c2cnc(Nc3ccc(C(=O)NC4CCN(C)CC4)cc3OC)nc2N1C1CCCC1 [BI-2536]; assay: as above; conditions: exposure time: 5 days; dose range 0.5-1000 nM
Summary of the method: as §1

AFATINIB [5] = compound: T5, CN(C)C/C=C/C(=O)Nc1cc2c(Nc3ccc(F)c(Cl)c3)ncnc2cc1O[C@H]1CCOC1 [AFATINIB]; assay: as above; conditions: exposure time: 5 days; dose range 0.5-1000 nM
Summary of the method: as §1

MDV3100 [6] = compound: T6, CNC(=O)c1ccc(N2C(=S)N(c3ccc(C#N)c(C(F)(F)F)c3)C(=O)C2(C)C)cc1F [MDV3100]; assay: as above; conditions: exposure time: 5 days; dose range 0.5-1000 nM
Summary of the method: as §1

[7] = compound: Cn1cc(C2=Nc3cc(NC(=O)C(N)C4CCCCC4)cc4c3C2=CNNC4=O)cn1; assay: as above; conditions: exposure time: 5 days; dose range 0.5-1000 nM
Summary of the method: as §1

TIOGUANINE [8] = compound: T7, Nc1nc2[nH]cnc2c(=S)[nH]1 [TIOGUANINE]; assay: as above; conditions: exposure time: 5 days; dose range 0.5-1000 nM
Summary of the method: as §1

CANERTINIB [9] = compound: T1, CANERTINIB; assay: surviving fraction relative to DMSO-only wells; higher = less growth inhibition; conditions: exposure time: 5 days
Summary of the method: (§2)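 Viability was determined by CellTiter-Glo luminescence, expressed as surviving fraction normalised to the median of DMSO-only wells. The cells were log-phase tumour cell lines seeded at 250–500 per well in 384-well plates and, after 24 hours, exposed continuously for five days to inhibitors at 0.5, 1, 5, 10, 50, 100, 500 and 1000 nM. Three screens per line were run, keeping only lines with replicate Pearson r >0.7 and median Z' >0.3.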

SNX-5422 [10] = compound: T2, SNX-5422; assay: as above; conditions: exposure time: 5 days
Summary of the method: as §2

SAPACITABINE [11] = compound: T3, SAPACITABINE; assay: as above; conditions: exposure time: 5 days
Summary of the method: as §2

BI-2536 [12] = compound: T4, BI-2536; assay: as above; conditions: exposure time: 5 days
Summary of the method: as §2

AFATINIB [13] = compound: T5, AFATINIB; assay: as above; conditions: exposure time: 5 days
Summary of the method: as §2

MDV3100 [14] = compound: T6, MDV3100; assay: as above; conditions: exposure time: 5 days
Summary of the method: as §2

[15] = compound: Cn1cc(C2=Nc3cc(NC(=O)C(N)C4CCCCC4)cc4c3C2=CNNC4=O)cn1; assay: as above; conditions: exposure time: 5 days
Summary of the method: as §2

TIOGUANINE [16] = compound: T7, TIOGUANINE; assay: as above; conditions: exposure time: 5 days
Summary of the method: as §2

HS57T LUNG was tested, and the “area under dose-response curve” value (CANERTINIB [1]) was 2.92, the “area under dose-response curve” value (SNX-5422 [2]) was 2.06 and the “area under dose-response curve” value (SAPACITABINE [3]) was 2.37. The “area under dose-response curve” value (BI-2536 [4]) was 1.08, the “area under dose-response curve” value (AFATINIB [5]) was 3.15 and the “area under dose-response curve” value (MDV3100 [6]) was 3.03. For the same test system, the “area under dose-response curve” value [7] was 2.49 and the “area under dose-response curve” value (TIOGUANINE [8]) was 3.23.

CAL120 BREAST was tested, and the surviving fraction (CANERTINIB [9]; 0.5 nM) was 0.903 ± 0.055, the surviving fraction (CANERTINIB [9]; 1 nM) was 0.91 ± 0.063 and the surviving fraction (CANERTINIB [9]; 5 nM) was 0.91 ± 0.08. For the same test system, the surviving fraction (CANERTINIB [9]; 10 nM) was 0.902 ± 0.036, the surviving fraction (CANERTINIB [9]; 50 nM) was 0.921 ± 0.087 and the surviving fraction (CANERTINIB [9]; 100 nM) was 0.928 ± 0.046. For the same test system, the surviving fraction (CANERTINIB [9]; 500 nM) was 0.795 ± 0.092, the surviving fraction (CANERTINIB [9]; 1000 nM) was 0.597 ± 0.021 and the surviving fraction (SNX-5422 [10]; 0.5 nM) was 0.993 ± 0.019. The surviving fraction (SNX-5422 [10]; 1 nM) was 0.946 ± 0.034, the surviving fraction (SNX-5422 [10]; 5 nM) was 0.962 ± 0.057 and the surviving fraction (SNX-5422 [10]; 10 nM) was 0.875 ± 0.057. For the same test system, the surviving fraction (SNX-5422 [10]; 50 nM) was 0.149 ± 0.013, the surviving fraction (SNX-5422 [10]; 100 nM) was 0.132 ± 0.0094 and the surviving fraction (SNX-5422 [10]; 500 nM) was 0.083 ± 0.0092. For the same test system, the surviving fraction (SNX-5422 [10]; 1000 nM) was 0.0862 ± 0.0052, the surviving fraction (SAPACITABINE [11]; 0.5 nM) was 0.917 ± 0.028 and the surviving fraction (SAPACITABINE [11]; 1 nM) was 0.901 ± 0.047. For the same test system, the surviving fraction (SAPACITABINE [11]; 5 nM) was 0.893 ± 0.081, the surviving fraction (SAPACITABINE [11]; 10 nM) was 0.876 ± 0.053 and the surviving fraction (SAPACITABINE [11]; 50 nM) was 0.749 ± 0.06. For the same test system, the surviving fraction (SAPACITABINE [11]; 100 nM) was 0.631 ± 0.038, the surviving fraction (SAPACITABINE [11]; 500 nM) was 0.428 ± 0.01 and the surviving fraction (SAPACITABINE [11]; 1000 nM) was 0.3798 ± 0.0035. For the same test system, the surviving fraction (BI-2536 [12]; 0.5 nM) was 0.941 ± 0.025, the surviving fraction (BI-2536 [12]; 1 nM) was 0.431 ± 0.034 and the surviving fraction (BI-2536 [12]; 5 nM) was 0.176 ± 0.0061. The surviving fraction (BI-2536 [12]; 10 nM) was 0.151 ± 0.013, the surviving fraction (BI-2536 [12]; 50 nM) was 0.126 ± 0.01 and the surviving fraction (BI-2536 [12]; 100 nM) was 0.113 ± 0.0079. The surviving fraction (BI-2536 [12]; 500 nM) was 0.0725 ± 0.0027, the surviving fraction (BI-2536 [12]; 1000 nM) was 0.0657 ± 0.0062 and the surviving fraction (AFATINIB [13]; 0.5 nM) was 0.955 ± 0.035. The surviving fraction (AFATINIB [13]; 1 nM) was 0.96 ± 0.0041, the surviving fraction (AFATINIB [13]; 5 nM) was 0.968 ± 0.035 and the surviving fraction (AFATINIB [13]; 10 nM) was 0.928 ± 0.013. It also gave a surviving fraction (AFATINIB [13]; 50 nM) of 0.908 ± 0.032, a surviving fraction (AFATINIB [13]; 100 nM) of 0.852 ± 0.029 and a surviving fraction (AFATINIB [13]; 500 nM) of 0.671 ± 0.01. The surviving fraction (AFATINIB [13]; 1000 nM) was 0.471 ± 0.038, the surviving fraction (MDV3100 [14]; 0.5 nM) was 0.906 ± 0.066 and the surviving fraction (MDV3100 [14]; 1 nM) was 0.905 ± 0.025. It also gave a surviving fraction (MDV3100 [14]; 5 nM) of 0.931 ± 0.051, a surviving fraction (MDV3100 [14]; 10 nM) of 0.925 ± 0.077 and a surviving fraction (MDV3100 [14]; 50 nM) of 0.941 ± 0.058. For the same test system, the surviving fraction (MDV3100 [14]; 100 nM) was 0.935 ± 0.042, the surviving fraction (MDV3100 [14]; 500 nM) was 0.953 ± 0.059 and the surviving fraction (MDV3100 [14]; 1000 nM) was 0.955 ± 0.025. The surviving fraction ([15]; 0.5 nM) was 0.966 ± 0.012, the surviving fraction ([15]; 1 nM) was 1.02 ± 0.019 and the surviving fraction ([15]; 5 nM) was 1.01 ± 0.013. For the same test system, the surviving fraction ([15]; 10 nM) was 1.01 ± 0.038, the surviving fraction ([15]; 50 nM) was 0.966 ± 0.029 and the surviving fraction ([15]; 100 nM) was 0.856 ± 0.044. For the same test system, the surviving fraction ([15]; 500 nM) was 0.375 ± 0.02, the surviving fraction ([15]; 1000 nM) was 0.24 ± 0.023 and the surviving fraction (TIOGUANINE [16]; 0.5 nM) was 0.912 ± 0.028. The surviving fraction (TIOGUANINE [16]; 1 nM) was 0.943 ± 0.014, the surviving fraction (TIOGUANINE [16]; 5 nM) was 0.9412 ± 0.0032 and the surviving fraction (TIOGUANINE [16]; 10 nM) was 0.919 ± 0.028. It also gave a surviving fraction (TIOGUANINE [16]; 50 nM) of 0.95 ± 0.021, a surviving fraction (TIOGUANINE [16]; 100 nM) of 0.939 ± 0.02 and a surviving fraction (TIOGUANINE [16]; 500 nM) of 0.88 ± 0.035. The surviving fraction (TIOGUANINE [16]; 1000 nM) was 0.826 ± 0.036, the “area under dose-response curve” value (CANERTINIB [1]) was 3.01 and the “area under dose-response curve” value (SNX-5422 [2]) was 1.77. The “area under dose-response curve” value (SAPACITABINE [3]) was 2.46, the “area under dose-response curve” value (BI-2536 [4]) was 0.616 and the “area under dose-response curve” value (AFATINIB [5]) was 2.87. For the same test system, the “area under dose-response curve” value (MDV3100 [6]) was 3.07, the “area under dose-response curve” value [7] was 2.8 and the “area under dose-response curve” value (TIOGUANINE [8]) was 3.05.
